US9340590B2 (priority 2011, dated 2016)
Positions of bridges follow the written chain, without caps; N, C: chain ends. Residues, ends and D or L forms follow the SMILES beside them.

Tests used:
Experiment in all cases: cell-based
hNav1.7 = hNav1.7 (Homo sapiens, UniProt Q15858); format: cell-based; details: IonWorks Quattro, use-dependent block, hNav1.7; read-out: IWQ Use Nav1.7
hNav1.5 = hNav1.5 (Homo sapiens, UniProt Q14524); details: IonWorks Quattro, use-dependent block, hNav1.5; read-out: IWQ Use Nav1.5
Sequence of hNav1.5 (Q14524 whole entry, looked up): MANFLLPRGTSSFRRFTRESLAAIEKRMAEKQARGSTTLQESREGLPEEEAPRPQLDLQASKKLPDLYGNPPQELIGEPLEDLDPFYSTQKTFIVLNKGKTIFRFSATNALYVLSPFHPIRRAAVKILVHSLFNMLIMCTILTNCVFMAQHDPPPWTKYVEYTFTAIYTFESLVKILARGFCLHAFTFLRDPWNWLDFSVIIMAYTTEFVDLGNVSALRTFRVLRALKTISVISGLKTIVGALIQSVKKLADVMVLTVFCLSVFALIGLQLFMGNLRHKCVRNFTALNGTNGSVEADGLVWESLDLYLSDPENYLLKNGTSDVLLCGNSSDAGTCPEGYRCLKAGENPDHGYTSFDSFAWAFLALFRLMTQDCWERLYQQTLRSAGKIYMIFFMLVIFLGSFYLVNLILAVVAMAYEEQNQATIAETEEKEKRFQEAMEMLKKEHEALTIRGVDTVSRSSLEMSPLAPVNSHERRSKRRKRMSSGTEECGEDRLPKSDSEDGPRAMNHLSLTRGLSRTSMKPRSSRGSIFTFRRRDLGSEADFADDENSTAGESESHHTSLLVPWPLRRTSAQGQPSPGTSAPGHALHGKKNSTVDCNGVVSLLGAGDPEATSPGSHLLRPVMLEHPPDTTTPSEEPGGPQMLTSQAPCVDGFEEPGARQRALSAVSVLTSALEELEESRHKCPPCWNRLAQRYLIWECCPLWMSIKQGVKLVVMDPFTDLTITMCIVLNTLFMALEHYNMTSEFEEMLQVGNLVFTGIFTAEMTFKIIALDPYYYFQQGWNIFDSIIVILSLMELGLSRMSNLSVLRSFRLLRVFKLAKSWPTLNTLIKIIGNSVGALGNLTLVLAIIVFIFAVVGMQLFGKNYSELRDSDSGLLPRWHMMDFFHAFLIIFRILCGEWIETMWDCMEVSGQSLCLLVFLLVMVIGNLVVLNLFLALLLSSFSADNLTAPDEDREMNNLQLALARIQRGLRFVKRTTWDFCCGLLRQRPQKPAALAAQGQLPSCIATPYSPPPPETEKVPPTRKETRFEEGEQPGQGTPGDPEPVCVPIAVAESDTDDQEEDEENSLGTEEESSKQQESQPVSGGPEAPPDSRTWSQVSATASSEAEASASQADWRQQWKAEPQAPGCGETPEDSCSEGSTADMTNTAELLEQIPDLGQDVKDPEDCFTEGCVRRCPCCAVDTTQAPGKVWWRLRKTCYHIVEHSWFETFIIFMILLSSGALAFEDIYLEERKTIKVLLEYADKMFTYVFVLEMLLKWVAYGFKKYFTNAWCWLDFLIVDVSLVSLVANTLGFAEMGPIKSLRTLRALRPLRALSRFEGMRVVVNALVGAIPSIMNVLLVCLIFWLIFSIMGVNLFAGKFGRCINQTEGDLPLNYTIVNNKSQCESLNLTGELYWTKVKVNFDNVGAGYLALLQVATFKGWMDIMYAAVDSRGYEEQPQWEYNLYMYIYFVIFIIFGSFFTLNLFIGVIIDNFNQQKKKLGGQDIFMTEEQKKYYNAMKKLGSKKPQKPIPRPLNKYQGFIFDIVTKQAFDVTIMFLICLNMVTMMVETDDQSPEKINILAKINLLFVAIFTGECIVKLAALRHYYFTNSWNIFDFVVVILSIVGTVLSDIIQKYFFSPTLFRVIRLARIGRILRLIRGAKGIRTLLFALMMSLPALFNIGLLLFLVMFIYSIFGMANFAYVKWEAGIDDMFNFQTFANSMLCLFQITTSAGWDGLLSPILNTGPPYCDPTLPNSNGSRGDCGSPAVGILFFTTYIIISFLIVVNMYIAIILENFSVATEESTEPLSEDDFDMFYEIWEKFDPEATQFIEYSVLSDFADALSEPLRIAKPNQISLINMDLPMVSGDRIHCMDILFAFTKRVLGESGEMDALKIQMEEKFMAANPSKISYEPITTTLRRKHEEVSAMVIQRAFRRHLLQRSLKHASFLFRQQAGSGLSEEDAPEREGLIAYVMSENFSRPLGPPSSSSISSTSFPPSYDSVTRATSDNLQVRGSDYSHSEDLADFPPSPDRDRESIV

hNav1.3 = hNav1.3 (Homo sapiens, UniProt Q9NY46); details: IonWorks Quattro, use-dependent block, hNav1.3; read-out: IWQ Use Nav1.3
Sequence of hNav1.3 (Q9NY46 whole entry, looked up): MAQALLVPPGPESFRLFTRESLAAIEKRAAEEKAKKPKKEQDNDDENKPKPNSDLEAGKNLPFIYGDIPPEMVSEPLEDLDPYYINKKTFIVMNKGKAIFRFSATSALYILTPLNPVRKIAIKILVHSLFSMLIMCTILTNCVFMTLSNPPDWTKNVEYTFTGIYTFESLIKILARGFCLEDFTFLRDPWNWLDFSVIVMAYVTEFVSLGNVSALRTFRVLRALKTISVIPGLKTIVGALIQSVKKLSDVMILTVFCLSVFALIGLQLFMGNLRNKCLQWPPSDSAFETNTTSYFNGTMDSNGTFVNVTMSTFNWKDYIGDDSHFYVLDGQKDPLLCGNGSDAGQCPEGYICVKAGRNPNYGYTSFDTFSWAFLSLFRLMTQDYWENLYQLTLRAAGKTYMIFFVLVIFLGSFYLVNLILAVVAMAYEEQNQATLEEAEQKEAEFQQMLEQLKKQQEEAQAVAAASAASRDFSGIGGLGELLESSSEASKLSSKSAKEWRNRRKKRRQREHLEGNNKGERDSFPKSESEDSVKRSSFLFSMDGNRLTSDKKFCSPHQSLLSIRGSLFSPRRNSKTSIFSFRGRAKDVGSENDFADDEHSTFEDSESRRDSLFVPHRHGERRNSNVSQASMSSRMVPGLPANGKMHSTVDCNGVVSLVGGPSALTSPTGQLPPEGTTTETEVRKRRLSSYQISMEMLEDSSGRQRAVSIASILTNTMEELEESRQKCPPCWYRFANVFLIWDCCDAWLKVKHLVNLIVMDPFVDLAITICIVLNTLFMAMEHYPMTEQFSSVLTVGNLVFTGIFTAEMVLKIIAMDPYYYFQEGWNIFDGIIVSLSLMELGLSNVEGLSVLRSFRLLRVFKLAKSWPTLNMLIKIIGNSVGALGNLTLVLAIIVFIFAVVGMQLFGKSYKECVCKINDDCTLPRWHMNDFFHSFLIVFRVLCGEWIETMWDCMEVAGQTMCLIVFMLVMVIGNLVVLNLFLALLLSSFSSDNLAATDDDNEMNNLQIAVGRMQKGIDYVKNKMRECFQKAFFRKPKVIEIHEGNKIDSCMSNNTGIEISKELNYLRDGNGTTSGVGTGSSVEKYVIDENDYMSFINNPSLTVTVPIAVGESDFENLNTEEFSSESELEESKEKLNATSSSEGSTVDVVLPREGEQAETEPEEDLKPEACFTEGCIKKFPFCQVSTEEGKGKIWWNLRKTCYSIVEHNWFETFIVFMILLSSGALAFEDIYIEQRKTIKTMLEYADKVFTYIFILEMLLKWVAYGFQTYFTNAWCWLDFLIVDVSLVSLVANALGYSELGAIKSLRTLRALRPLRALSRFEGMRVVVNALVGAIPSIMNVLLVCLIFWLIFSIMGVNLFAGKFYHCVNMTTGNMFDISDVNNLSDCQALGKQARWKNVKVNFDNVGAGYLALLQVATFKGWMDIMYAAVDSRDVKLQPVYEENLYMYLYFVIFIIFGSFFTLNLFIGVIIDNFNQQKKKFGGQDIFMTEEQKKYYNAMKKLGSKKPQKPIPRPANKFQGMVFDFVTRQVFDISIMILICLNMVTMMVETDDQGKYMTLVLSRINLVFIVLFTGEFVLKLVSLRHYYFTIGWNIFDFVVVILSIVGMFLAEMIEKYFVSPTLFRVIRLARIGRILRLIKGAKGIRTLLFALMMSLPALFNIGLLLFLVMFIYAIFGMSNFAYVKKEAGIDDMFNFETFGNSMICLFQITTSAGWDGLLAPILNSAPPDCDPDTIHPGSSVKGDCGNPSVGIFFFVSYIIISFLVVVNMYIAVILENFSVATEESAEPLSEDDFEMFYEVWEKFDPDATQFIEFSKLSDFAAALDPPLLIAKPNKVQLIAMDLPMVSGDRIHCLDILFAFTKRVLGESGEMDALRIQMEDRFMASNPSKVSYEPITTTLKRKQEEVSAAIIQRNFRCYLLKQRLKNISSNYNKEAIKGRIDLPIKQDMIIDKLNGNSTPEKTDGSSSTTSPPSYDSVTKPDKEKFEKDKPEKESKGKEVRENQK

Structure (SMILES)	IC50 (hNav1.7)	IC50 (hNav1.5)	IC50 (hNav1.3)
CC[C@H](C)[C@@H]1NC(=O)[C@@H]2CSSC[C@@H]3NC(=O)[C@H](C(C)C)NC(=O)[C@H](CC(C)C)NC(=O)[C@H](CC(N)=O)NC(=O)[C@@H]4CCCN4C(=O)[C@H](CCCNC(=N)N)NC(=O)[C@H](CSSC[C@H](NC(=O)[C@@H](N)CC(=O)O)C(=O)N[C@@H](CC(C)C)C(=O)NCC(=O)N[C@@H](C)C(=O)N[C@@H](Cc4ccccc4)C(=O)N[C@@H](CCCNC(=N)N)C(=O)N[C@@H](CCCCN)C(=O)N2)NC(=O)[C@H](CSSC[C@@H](C(=O)N[C@@H](CCCCN)C(=O)N[C@@H](Cc2ccc(O)cc2)C(=O)N[C@H](C(=O)N[C@@H](Cc2ccccc2)C(=O)O)C(C)C)NC(=O)[C@H](Cc2c[nH]c4ccccc24)NC(=O)[C@H](CCCNC(=N)N)NC(=O)[C@H](Cc2c[nH]cn2)NC(=O)[C@H]([C@@H](C)O)NC(=O)[C@H](CCCNC(=N)N)NC(=O)[C@H](CO)NC3=O)NC(=O)[C@H](CCCCN)NC(=O)[C@H](CC(=O)O)NC(=O)[C@H](C(C)C)NC(=O)[C@H](CC(=O)O)NC(=O)[C@@H]2CCCN2C1=O [compound 851]	> 5 µM	> 5 µM	1.7 µM
CC[C@H](C)[C@@H]1NC(=O)[C@@H]2CSSC[C@@H]3NC(=O)[C@H](C(C)C)NC(=O)[C@H](CC(C)C)NC(=O)[C@H](CC(N)=O)NC(=O)[C@@H]4CCCN4C(=O)[C@H](CCCNC(=N)N)NC(=O)[C@H](CSSC[C@H](NC(=O)[C@@H](N)CC(=O)O)C(=O)N[C@@H](CC(C)C)C(=O)NCC(=O)N[C@@H](C)C(=O)N[C@@H](Cc4ccccc4)C(=O)N[C@@H](CCCNC(=N)N)C(=O)N[C@@H](CCCCN)C(=O)N2)NC(=O)[C@H](CSSC[C@@H](C(=O)N[C@@H](CCCCN)C(=O)N[C@@H](Cc2ccc(O)cc2)C(=O)N[C@H](C(=O)N[C@@H](Cc2ccccc2)C(=O)O)C(C)C)NC(=O)[C@H](Cc2c[nH]c4ccccc24)NC(=O)[C@H](CCCNC(=N)N)NC(=O)[C@H](Cc2c[nH]cn2)NC(=O)[C@H]([C@@H](C)O)NC(=O)[C@H](CCCNC(=N)N)NC(=O)[C@H](CO)NC3=O)NC(=O)[C@H](CCCCN)NC(=O)[C@H](CC(=O)O)NC(=O)[C@H](Cc2c[nH]c3ccccc23)NC(=O)[C@H](CC(=O)O)NC(=O)[C@@H]2CCCN2C1=O [compound 852]	> 5 µM	> 5 µM	> 5 µM
CC[C@H](C)[C@@H]1NC(=O)[C@@H]2CSSC[C@@H]3NC(=O)[C@H](C(C)C)NC(=O)[C@H](CC(C)C)NC(=O)[C@H](CC(N)=O)NC(=O)[C@@H]4CCCN4C(=O)[C@H](CCCNC(=N)N)NC(=O)[C@H](CSSC[C@H](NC(=O)[C@@H](N)CC(=O)O)C(=O)N[C@@H](CC(C)C)C(=O)NCC(=O)N[C@@H](C)C(=O)N[C@@H](CC(C)C)C(=O)N[C@@H](CCCNC(=N)N)C(=O)N[C@@H](CCCCN)C(=O)N2)NC(=O)[C@H](CSSC[C@@H](C(=O)N[C@@H](CCCCN)C(=O)N[C@@H](Cc2ccc(O)cc2)C(=O)N[C@H](C(=O)N[C@@H](Cc2ccccc2)C(=O)O)C(C)C)NC(=O)[C@H](Cc2c[nH]c4ccccc24)NC(=O)[C@H](CCCNC(=N)N)NC(=O)[C@H](Cc2c[nH]cn2)NC(=O)[C@H]([C@@H](C)O)NC(=O)[C@H](CCCNC(=N)N)NC(=O)[C@H](CO)NC3=O)NC(=O)[C@H](CCCCN)NC(=O)[C@H](CC(=O)O)NC(=O)[C@H](CC(N)=O)NC(=O)[C@H](CC(=O)O)NC(=O)[C@@H]2CCCN2C1=O [compound 853] (H-DCLGALRKCIPDNDKCCRPNLVCSRTHRWCKYVF-OH; disulfide 2-17, 9-23, 16-30)	> 5 µM	> 5 µM	> 5 µM
CC[C@H](C)[C@@H]1NC(=O)[C@@H]2CSSC[C@@H]3NC(=O)[C@H](C(C)C)NC(=O)[C@H](CC(C)C)NC(=O)[C@H](CC(N)=O)NC(=O)[C@@H]4CCCN4C(=O)[C@H](CCCNC(=N)N)NC(=O)[C@H](CSSC[C@H](NC(=O)[C@@H](N)CC(=O)O)C(=O)N[C@@H](CC(C)C)C(=O)NCC(=O)N[C@@H](C)C(=O)N[C@@H](CC(C)C)C(=O)N[C@@H](CCCNC(=N)N)C(=O)N[C@@H](CCCCN)C(=O)N2)NC(=O)[C@H](CSSC[C@@H](C(=O)N[C@@H](CCCCN)C(=O)N[C@@H](Cc2ccc(O)cc2)C(=O)N[C@H](C(=O)N[C@@H](Cc2ccccc2)C(=O)O)C(C)C)NC(=O)[C@H](Cc2c[nH]c4ccccc24)NC(=O)[C@H](CC(=O)O)NC(=O)[C@H](Cc2c[nH]cn2)NC(=O)[C@H]([C@@H](C)O)NC(=O)[C@H](CCCNC(=N)N)NC(=O)[C@H](CO)NC3=O)NC(=O)[C@H](CCCCN)NC(=O)[C@H](CC(=O)O)NC(=O)[C@H](CC(N)=O)NC(=O)[C@H](CC(=O)O)NC(=O)[C@@H]2CCCN2C1=O [compound 854] (H-DCLGALRKCIPDNDKCCRPNLVCSRTHDWCKYVF-OH; disulfide 2-17, 9-23, 16-30)	> 5 µM	> 5 µM	> 5 µM
CC[C@H](C)[C@@H]1NC(=O)[C@@H]2CSSC[C@@H]3NC(=O)[C@H](C(C)C)NC(=O)[C@H](CC(C)C)NC(=O)[C@H](CC(N)=O)NC(=O)[C@@H]4CCCN4C(=O)[C@H](CCCNC(=N)N)NC(=O)[C@H](CSSC[C@H](NC(=O)[C@@H](N)CC(=O)O)C(=O)N[C@@H](CC(C)C)C(=O)NCC(=O)N[C@@H](C)C(=O)N[C@@H](CC(C)C)C(=O)N[C@@H](CCCNC(=N)N)C(=O)N[C@@H](CCCCN)C(=O)N2)NC(=O)[C@H](CSSC[C@@H](C(=O)N[C@@H](CCCCN)C(=O)N[C@@H](Cc2ccc(O)cc2)C(=O)N[C@H](C(=O)N[C@@H](Cc2ccccc2)C(=O)O)C(C)C)NC(=O)[C@H](Cc2c[nH]c4ccccc24)NC(=O)[C@H](CCC(=O)O)NC(=O)[C@H](Cc2c[nH]cn2)NC(=O)[C@H]([C@@H](C)O)NC(=O)[C@H](CCCNC(=N)N)NC(=O)[C@H](CO)NC3=O)NC(=O)[C@H](CCCCN)NC(=O)[C@H](CC(=O)O)NC(=O)[C@H](CC(N)=O)NC(=O)[C@H](CC(=O)O)NC(=O)[C@@H]2CCCN2C1=O [compound 855]	> 5 µM	> 5 µM	> 5 µM
CC[C@H](C)[C@@H]1NC(=O)[C@@H]2CSSC[C@@H]3NC(=O)[C@H](C(C)C)NC(=O)[C@H](CC(C)C)NC(=O)[C@H](CC(N)=O)NC(=O)[C@@H]4CCCN4C(=O)[C@H](CCCNC(=N)N)NC(=O)[C@H](CSSC[C@H](NC(=O)[C@@H](N)CC(=O)O)C(=O)N[C@@H](CC(C)C)C(=O)NCC(=O)N[C@@H](C)C(=O)N[C@@H](CC(C)C)C(=O)N[C@@H](CCCNC(=N)N)C(=O)N[C@@H](CCCCN)C(=O)N2)NC(=O)[C@H](CSSC[C@@H](C(=O)N[C@@H](CCCCN)C(=O)N[C@@H](Cc2ccc(O)cc2)C(=O)N[C@H](C(=O)N[C@@H](Cc2ccccc2)C(=O)O)C(C)C)NC(=O)[C@H](Cc2c[nH]c4ccccc24)NC(=O)[C@H](CC(C)C)NC(=O)[C@H](Cc2c[nH]cn2)NC(=O)[C@H]([C@@H](C)O)NC(=O)[C@H](CCCNC(=N)N)NC(=O)[C@H](CO)NC3=O)NC(=O)[C@H](CCCCN)NC(=O)[C@H](CC(=O)O)NC(=O)[C@H](CC(N)=O)NC(=O)[C@H](CC(=O)O)NC(=O)[C@@H]2CCCN2C1=O [compound 856] (H-DCLGALRKCIPDNDKCCRPNLVCSRTHLWCKYVF-OH; disulfide 2-17, 9-23, 16-30)	4.1 µM	> 5 µM	4.1 µM
